One experiment deals with E. coli D22. Kind of experiment: microbe, parasite or virus in culture. It is filed as cell-based. The settings on record: Escherichia coli, D22, read-out: MIC E. coli D22.
A further experiment relates to K. pneumoniae UMM. Description: microbe, parasite or virus in culture. It is filed as cell-based. As to conditions: Klebsiella pneumoniae, read-out: MIC K. pneumoniae UMM.
The next experiment relates to N. gonorrhoeae FA1090. Description: Liquid broth MIC in Fastidious broth. The settings on record: Neisseria gonorrhoeae, FA1090, read-out: Minimum Inhibitory Concentration (MIC), N. gonorrhoeae FA 1090.
A further experiment deals with P. aeruginosa ATCC 27853. Kind of experiment: microbe, parasite or virus in culture. It is filed as cell-based. The settings on record: Pseudomonas aeruginosa, ATCC27853, read-out: MIC P. aeruginosa ATCC 27853.
Another experiment relates to K. pneumoniae SI-117. Kind of experiment: microbe, parasite or virus in culture. It is filed as cell-based. The settings on record: Klebsiella pneumoniae, SI117, read-out: MIC K. pneumoniae SI-117.
The subject of the next experiment is N. gonorrhoeae WHO L. Description: Liquid broth MIC in Fastidious broth. The settings on record: Neisseria gonorrhoeae, read-out: Minimum Inhibitory Concentration (MIC), N. gonorrhoeae WHO L.
Experiment [1] has as its target T1, PBP2 from Neisseria gonorrhoeae (FA19) (Neisseria gonorrhoeae, UniProt P08149).
T1 construct: made in house
Kind of experiment: Bocillin-FL fluorescence polarization competition binding, N. gonorrhoeae PBP2. As to conditions: fluorescence polarization competition binding assay using Bocillin-FL, read-out: N. gonorrhoeae PBP2 Potency. In a few lines:
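Fluorescence polarization competition with 0.1 μM Bocillin-FL (fluorescent penicillin V) against 0.25 μM N. gonorrhoeae FA19 PBP2 in 50 mM Hepes pH 8.0, 300 mM NaCl, 10% glycerol. Boronic acid inhibitors were preincubated with PBP, then Bocillin-FL was added and FP read (490/520 nm) up to 60 min. EC50 is the concentration halving PBP-bound Bocillin-FL.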

A further experiment relates to P. aeruginosa ATCC 35151. Kind of experiment: microbe, parasite or virus in culture. It is filed as cell-based. As to conditions: Pseudomonas aeruginosa, ATCC35151, read-out: MIC P. aeruginosa ATCC 35151.
A further experiment has as its system N. gonorrhoeae WHO Z. Description: Liquid broth MIC in Fastidious broth. As to conditions: Neisseria gonorrhoeae, read-out: Minimum Inhibitory Concentration (MIC), N. gonorrhoeae WHO Z.
The next experiment concerns E. coli 901C. Kind of experiment: microbe, parasite or virus in culture. It is filed as cell-based. As to conditions: Escherichia coli, read-out: MIC E. coli 901C.
A further experiment relates to N. gonorrhoeae WHO K. Description: Liquid broth MIC in Fastidious broth. The settings on record: Neisseria gonorrhoeae, read-out: Minimum Inhibitory Concentration (MIC), N. gonorrhoeae WHO K.
Another experiment has as its system E. coli AG100. Description: microbe, parasite or virus in culture. It is filed as cell-based. As to conditions: Escherichia coli, AG100, read-out: MIC E. coli AG100.
The next experiment concerns N. gonorrhoeae MS11. Kind of experiment: Liquid broth MIC in Fastidious broth. The settings on record: Neisseria gonorrhoeae, MS11, read-out: Minimum Inhibitory Concentration (MIC), N. gonorrhoeae MS11.
Another experiment relates to N. gonorrhoeae WHO G. Description: Liquid broth MIC in Fastidious broth. As to conditions: Neisseria gonorrhoeae, read-out: Minimum Inhibitory Concentration (MIC), N. gonorrhoeae WHO G.

In brackets after ≈: the same amount, converted by molar mass. A value given as a limit tells only on which side of the number the result lay.

T1 sequence (P08149 whole entry): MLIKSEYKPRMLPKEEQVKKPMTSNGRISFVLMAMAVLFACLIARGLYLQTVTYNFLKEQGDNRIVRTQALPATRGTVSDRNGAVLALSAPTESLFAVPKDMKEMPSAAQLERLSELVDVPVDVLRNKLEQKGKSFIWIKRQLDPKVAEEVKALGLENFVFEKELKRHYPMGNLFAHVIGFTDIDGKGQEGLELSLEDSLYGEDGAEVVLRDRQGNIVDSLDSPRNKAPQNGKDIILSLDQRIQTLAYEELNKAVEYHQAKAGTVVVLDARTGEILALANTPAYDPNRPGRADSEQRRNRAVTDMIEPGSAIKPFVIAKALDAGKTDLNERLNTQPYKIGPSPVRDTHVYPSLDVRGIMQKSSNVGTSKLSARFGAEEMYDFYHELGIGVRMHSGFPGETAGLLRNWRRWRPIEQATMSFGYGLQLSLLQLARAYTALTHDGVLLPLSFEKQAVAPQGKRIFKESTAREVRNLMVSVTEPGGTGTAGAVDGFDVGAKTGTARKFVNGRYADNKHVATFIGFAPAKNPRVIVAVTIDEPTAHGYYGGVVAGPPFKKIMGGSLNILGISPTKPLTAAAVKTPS
Procedure for N. gonorrhoeae MS11: Additional antibacterial testing of the series was performed in 8 reference strains of N. gonorrhoeae (ATCC 49226, FA1090, MS 11, WHO G, WHO L, WHO M, WHO K, WHO X, WHO Z, WHO Q, CDC-0197). ATCC 49226, FA1090, MS11, WHO G, WHO L, and WHO M produce wild type or wild-type like PBP2. WHO K, WHO X, WHO Z, WHO Q, and CDC-0197 produce mosaic PBP2. Liquid broth-based assays were used for antibacterial testing of PBP inhibitors in Neisseria gonorrhoeae. Briefly, cryo-preserved bacterial cultures of clinical strains were streaked for isolation on Chocolate Agar (72 g/L (2×) GC Agar Base (BD #228950) and 2% (2×) Hemoglobin was autoclaved at 121° C. for 20 minutes to sterilize. Once cooled to ˜50° C. the 2×GC Agar Base and 2× Hemoglobin solutions are combined and 1% IsoVitaleX Enrichment (BD #211876) was added to the solution). Strains were incubated at 36° C. and 5% CO2 to allow growth of colonies, 24 hours before inoculum preparation. 2-fold serial dilutions of test compounds were conducted in a 96 well plate with a final volume of 75 μL per well at 2-fold the final desired concentration in Fastidious broth (Remel #R07664). For preparation of assay inoculum, a direct suspension was prepared by aseptically swabbing 10-15 colonies from agar plates into culture tubes containing 2 mL of fresh sterile saline. After the dilution plates were set up, direct suspensions were then diluted in a cuvette containing sterile saline and the optical density was measured at 600 nm. Inocula were diluted such that 75 μL of this culture in Fastidious broth results in a starting bacterial concentration of 5×10^5 CFU/mL when added to the dilution plates. The plates were incubated for ˜24 hours at 36° C. and 5% CO2.
Procedure for N. gonorrhoeae WHO K: Liquid broth-based assays were used for antibacterial testing of PBP inhibitors in Neisseria gonorrhoeae. Briefly, cryo-preserved bacterial cultures of clinical strains were streaked for isolation on Chocolate Agar (72 g/L (2×) GC Agar Base (BD #228950) and 2% (2×) Hemoglobin was autoclaved at 121° C. for 20 minutes to sterilize. Once cooled to ˜50° C. the 2×GC Agar Base and 2× Hemoglobin solutions are combined and 1% IsoVitaleX Enrichment (BD #211876) was added to the solution). Strains were incubated at 36° C. and 5% CO2 to allow growth of colonies, 24 hours before inoculum preparation. 2-fold serial dilutions of test compounds were conducted in a 96 well plate with a final volume of 75 μL per well at 2-fold the final desired concentration in Fastidious broth (Remel #R07664). For preparation of assay inoculum, a direct suspension was prepared by aseptically swabbing 10-15 colonies from agar plates into culture tubes containing 2 mL of fresh sterile saline. After the dilution plates were set up, direct suspensions were then diluted in a cuvette containing sterile saline and the optical density was measured at 600 nm. Inocula were diluted such that 75 μL of this culture in Fastidious broth results in a starting bacterial concentration of 5×10^5 CFU/mL when added to the dilution plates. The plates were incubated for ˜24 hours at 36° C. and 5% CO2.

For the compound `CCN1CCN(C(=O)NC(C(=O)N[C@H]2Cc3cccc(C(=O)O)c3OB2O)c2c(F)cc(P(=O)(O)O)cc2F)C(=O)C1=O` (stereo partly drawn) [Example 25, (3R)-3-(2-(2,6-difluoro-4-phosphonophenyl)-2-(4-ethyl-2,3-dioxopiperazine-1-carboxamido)acetamido)-2-hydroxy-3,4-dihydro-2H-benzo[e][1,2]oxaborinine-8-carboxylic acid], the MIC in the experiment on E. coli D22 is 2 to 4 µg/mL (≈ 3.2 to 6.41 µM); in the experiment with K. pneumoniae UMM, 32 to 64 µg/mL (≈ 51.3 to 103 µM); in the experiment on N. gonorrhoeae FA1090, less than 1 µg/mL; in the experiment with P. aeruginosa ATCC 27853, greater than 128 µg/mL; with K. pneumoniae SI-117, greater than 128 µg/mL; with N. gonorrhoeae WHO L, 1 to 2 µg/mL (≈ 1.6 to 3.2 µM). For the same compound, the MIC in the experiment with P. aeruginosa ATCC 35151 was 2 to 4 µg/mL (≈ 3.2 to 6.41 µM); in the experiment with N. gonorrhoeae WHO Z, less than 1 µg/mL; in the experiment with E. coli 901C, less than 1 µg/mL; in the experiment on N. gonorrhoeae WHO K it was 1 to 2 µg/mL (≈ 1.6 to 3.2 µM); with E. coli AG100, 32 to 64 µg/mL (≈ 51.3 to 103 µM); in the experiment on N. gonorrhoeae MS11, less than 1 µg/mL. Besides, in the experiment with N. gonorrhoeae WHO G, the MIC is less than 1 µg/mL. For the same compound, in experiment [1], the EC50 is less than 10 µM.

As to `CC(=O)NC(C(=O)N[C@H]1Cc2cccc(C(=O)O)c2OB1O)c1ccc(P(=O)(O)O)cc1` (stereo partly drawn) [Example 26, (3R)-3-(2-acetamido-2-(4-phosphonophenyl)acetamido)-2-hydroxy-3,4-dihydro-2H-benzo[e][1,2]oxaborinine-8-carboxylic acid], the MIC with E. coli D22 is 32 to 64 µg/mL (≈ 69.2 to 138 µM); in the experiment with K. pneumoniae UMM it was greater than 128 µg/mL; in the experiment with N. gonorrhoeae FA1090, 16 to 32 µg/mL (≈ 34.6 to 69.2 µM); in the experiment with P. aeruginosa ATCC 27853 it was greater than 128 µg/mL; in the experiment with K. pneumoniae SI-117 it was greater than 128 µg/mL; with N. gonorrhoeae WHO L it was 16 to 32 µg/mL (≈ 34.6 to 69.2 µM). Besides, the MIC in the experiment with P. aeruginosa ATCC 35151 is 8 to 16 µg/mL (≈ 17.3 to 34.6 µM); in the experiment on N. gonorrhoeae WHO Z it was 16 to 32 µg/mL (≈ 34.6 to 69.2 µM); in the experiment with E. coli 901C it was 8 to 16 µg/mL (≈ 17.3 to 34.6 µM); with N. gonorrhoeae WHO K, 16 to 32 µg/mL (≈ 34.6 to 69.2 µM); in the experiment with E. coli AG100, greater than 128 µg/mL; in the experiment on N. gonorrhoeae MS11, 16 to 32 µg/mL (≈ 34.6 to 69.2 µM). For the same compound, the MIC in the experiment with N. gonorrhoeae WHO G lay in the range of 16 to 32 µg/mL (≈ 34.6 to 69.2 µM). Besides, in experiment [1], the EC50 was in the range of 10 to 50 µM.

For `CCC(=O)NC(C(=O)N[C@H]1Cc2cccc(C(=O)O)c2OB1O)c1ccc(P(=O)(O)O)cc1` (stereo partly drawn) [Example 27, (3R)-2-hydroxy-3-(2-(4-phosphonophenyl)-2-propionamidoacetamido)-3,4-dihydro-2H-benzo[e][1,2]oxaborinine-8-carboxylic acid], the MIC in the experiment with E. coli D22 was 32 to 64 µg/mL (≈ 67.2 to 134 µM); in the experiment on K. pneumoniae UMM, greater than 128 µg/mL; in the experiment on N. gonorrhoeae FA1090, 4 to 8 µg/mL (≈ 8.4 to 16.8 µM); in the experiment on P. aeruginosa ATCC 27853, greater than 128 µg/mL; in the experiment with K. pneumoniae SI-117, greater than 128 µg/mL; in the experiment with N. gonorrhoeae WHO L, 16 to 32 µg/mL (≈ 33.6 to 67.2 µM). Moreover, the MIC in the experiment on P. aeruginosa ATCC 35151 is 8 to 16 µg/mL (≈ 16.8 to 33.6 µM); in the experiment on N. gonorrhoeae WHO Z, 16 to 32 µg/mL (≈ 33.6 to 67.2 µM); in the experiment with E. coli 901C, 8 to 16 µg/mL (≈ 16.8 to 33.6 µM); in the experiment on N. gonorrhoeae WHO K, 16 to 32 µg/mL (≈ 33.6 to 67.2 µM); with E. coli AG100, greater than 128 µg/mL; with N. gonorrhoeae MS11 it was 16 to 32 µg/mL (≈ 33.6 to 67.2 µM). Further, the MIC in the experiment with N. gonorrhoeae WHO G fell in the range of 4 to 8 µg/mL (≈ 8.4 to 16.8 µM). The EC50 in experiment [1] lay in the range of 10 to 50 µM.

Regarding `CC(C)C(=O)NC(C(=O)N[C@H]1Cc2cccc(C(=O)O)c2OB1O)c1ccc(P(=O)(O)O)cc1` (stereo partly drawn) [Example 28, (3R)-2-hydroxy-3-(2-isobutyramido-2-(4-phosphonophenyl)acetamido)-3,4-dihydro-2H-benzo[e][1,2]oxaborinine-8-carboxylic acid], the MIC in the experiment on E. coli D22 is 32 to 64 µg/mL (≈ 65.3 to 131 µM); in the experiment on K. pneumoniae UMM it was greater than 128 µg/mL; with N. gonorrhoeae FA1090 it was 4 to 8 µg/mL (≈ 8.16 to 16.3 µM); with P. aeruginosa ATCC 27853 it was greater than 128 µg/mL; in the experiment on K. pneumoniae SI-117, greater than 128 µg/mL; with N. gonorrhoeae WHO L, 16 to 32 µg/mL (≈ 32.6 to 65.3 µM). Also, the MIC in the experiment with P. aeruginosa ATCC 35151 was 8 to 16 µg/mL (≈ 16.3 to 32.6 µM); with N. gonorrhoeae WHO Z, 16 to 32 µg/mL (≈ 32.6 to 65.3 µM); with E. coli 901C, 8 to 16 µg/mL (≈ 16.3 to 32.6 µM); with N. gonorrhoeae WHO K, 16 to 32 µg/mL (≈ 32.6 to 65.3 µM); with E. coli AG100 it was greater than 128 µg/mL; in the experiment with N. gonorrhoeae MS11, 16 to 32 µg/mL (≈ 32.6 to 65.3 µM). For the same compound, in the experiment on N. gonorrhoeae WHO G, the MIC lay within 4 to 8 µg/mL (≈ 8.16 to 16.3 µM). In [1], the EC50 is less than 10 µM.

For the origin of these results see patent US20240270762A1, “PENICILLIN-BINDING PROTEIN INHIBITORS” (priority 2021, published 2024).
